# Test results published in patent publication US8865706B2, “Heteroaryl-substituted hexahydropyrano[3,4-d][1,3]thiazin-2-amine compounds” (Pfizer Inc., priority 2013, dated 2014).
# Tests used:
# BACE1 enzyme = BACE1 enzyme (Homo sapiens (Human), UniProt P56817); assay: BACE1 Cell-Free Assay (fluorescence polarization, cleavage of synthetic APP substrate); format: biochemical; conditions: average of 2 determinations; values marked b: geometric mean of 3-9 determinations
# Source text: This assay measures the inhibition of the beta-secretase enzyme as it cleaves a non-native peptide.
# A synthetic APP substrate that can be cleaved by beta-secretase having N-terminal biotin and made fluorescent by the covalent attachment of Oregon Green at the Cys residue is used to assay beta-secretase activity in the presence or absence of the inhibitory compounds. […] The BACE1 enzyme is affinity purified material from conditioned media of CHO-K1 cells that have been transfected with a soluble BACE construct (BACE1deltaTM96His). Compounds are incubated in a ½ log dose response curve from a top concentration of 100 μM with BACE1 enzyme and the biotinylated fluorescent peptide in 384-well black plates (Thermo Scientific #4318). BACE1 is at a final concentration of 0.1 nM with a final concentration of peptide substrate of 150 nM in a reaction volume of 30 μL assay buffer [100 mM sodium acetate, pH 4.5 (brought to pH with acetic acid), and 0.001% Tween-20]. Plates are covered and incubated for 3 hours at 37° C. The reaction is stopped with the addition of 30 μL of 1.5 μM Streptavidin (Pierce, #21125). After a 10 minute incubation at room temperature, plates are read on a PerkinElmer EnVision for fluorescence polarization (Ex485 nm/Em530 nm). The activity of the beta-secretase enzyme is detected by changes in the fluorescence polarization that occur when the substrate is cleaved by the enzyme.
# [1] = tested on: sAPPβ levels in H4 human neuroglioma cells over-expressing the wild-type human APP695; assay: Whole Cell Assay (In Vitro sAPPb Assay); format: cell-based; conditions: Homo sapiens, 18 hours treatment, average of 2 determinations, values marked b: geometric mean of 3-9 determinations
# Experimental: Whole Cell Assay (In Vitro sAPPb Assay):
# H4 human neuroglioma cells over-expressing the wild-type human APP695 are treated for 18 hours with compound in a final concentration 1% DMSO. sAPPβ levels are measured using TMB-ELISA with capture APP N-terminal antibody (Affinity BioReagents, OMA1-03132), wild-type sAPPβ specific reporter p192 (Elan), and tertiary anti rabbit-HRP (GE Healthcare).
# BACE1 enzyme, sequence (P56817 46-457): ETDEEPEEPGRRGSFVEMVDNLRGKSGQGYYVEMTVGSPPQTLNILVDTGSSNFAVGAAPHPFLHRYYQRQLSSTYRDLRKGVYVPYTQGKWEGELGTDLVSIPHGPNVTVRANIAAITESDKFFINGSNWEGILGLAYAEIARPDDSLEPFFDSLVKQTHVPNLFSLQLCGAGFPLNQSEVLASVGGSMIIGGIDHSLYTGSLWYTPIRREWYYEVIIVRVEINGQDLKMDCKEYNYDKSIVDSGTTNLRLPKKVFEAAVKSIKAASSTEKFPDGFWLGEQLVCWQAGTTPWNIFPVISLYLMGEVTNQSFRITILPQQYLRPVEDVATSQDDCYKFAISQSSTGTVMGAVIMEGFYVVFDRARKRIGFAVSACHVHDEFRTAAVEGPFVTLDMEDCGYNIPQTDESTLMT
SMILES,IC50 (BACE1 enzyme) [nM],IC50 [1] [nM]
"NC1=N[C@@]2(c3ccc(F)cc3F)CO[C@@H](c3nc4cnccc4o3)C[C@H]2CS1 [Example 10, (4aR,6R,8aS)-8a-(2,4-difluorophenyl)-6-([1,3]oxazolo[4,5-c]pyridin-2-yl)-4,4a,5,6,8,8a-hexahydropyrano[3,4-d][1,3]thiazin-2-amine]",240,21.2
"COc1cnc([C@H]2C[C@H]3CSC(N)=N[C@@]3(c3ccc(F)cc3F)CO2)nc1 [Example 11, (4aR,6R,8aS)-8a-(2,4-Difluorophenyl)-6-(5-methoxypyrimidin-2-yl)-4,4a,5,6,8,8a-hexahydropyrano[3,4-d][1,3]thiazin-2-amine]",343,29.1
"Cn1ncc([C@H]2C[C@H]3CSC(N)=N[C@@]3(c3ccc(F)cc3F)CO2)n1 [Example 12, (4aR,6R,8aS)-8a-(2,4-Difluorophenyl)-6-(2-methyl-2H-1,2,3-triazol-4-yl)-4,4a,5,6,8,8a-hexahydropyrano[3,4-d][1,3]thiazin-2-amine]",466,41.3
"Cc1cc([C@H]2C[C@H]3[C@@H](CF)SC(N)=N[C@@]3(c3ccc(F)cc3F)CO2)on1 [Example 13, (4S,4aR,6R,8aS)-8a-(2,4-Difluorophenyl)-4-(fluoromethyl)-6-(3-methyl-1,2-oxazol-5-yl)-4,4a,5,6,8,8a-hexahydropyrano[3,4-d][1,3]thiazin-2-amine]",54.8,13.1
"NC1=N[C@@]2(c3ccc(F)cc3F)CO[C@@H](c3nc(C(F)F)co3)C[C@H]2CS1 [Example 14, (4aR,6R,8aS)-6-[4-(Difluoromethyl)-1,3-oxazol-2-yl]-8a-(2,4-difluorophenyl)-4,4a,5,6,8,8a-hexahydropyrano[3,4-d][1,3]thiazin-2-amine]",231,20.8
"C[C@H]1SC(N)=N[C@@]2(c3ccc(F)cc3F)CO[C@@H](c3cnn(C)c3)C[C@@H]12 [Example 16, (4R,4aR,6R,8aS)-8a-(2,4-Difluorophenyl)-4-methyl-6-(1-methyl-1H-pyrazol-4-yl)-4,4a,5,6,8,8a-hexahydropyrano[3,4-d][1,3]thiazin-2-amine]",24.6,2.84
"Cc1ncc([C@H]2C[C@H]3CSC(N)=N[C@@]3(c3ccc(F)cc3F)CO2)cn1 [Example 17, (4aR,6R,8aS)-8a-(2,4-difluorophenyl)-6-(2-methylpyrimidin-5-yl)-4,4a,5,6,8,8a-hexahydropyrano[3,4-d][1,3]thiazin-2-amine]",1400,60.3
"Cn1cc([C@H]2C[C@H]3CSC(N)=N[C@@]3(c3ccc(F)cc3F)CO2)nn1 [Example 18, (4aR,6R,8aS)-8a-(2,4-Difluorophenyl)-6-(1-methyl-1H-1,2,3-triazol-4-yl)-4,4a,5,6,8,8a-hexahydropyrano[3,4-d][1,3]thiazin-2-amine]",877,25.2
"N#Cc1coc([C@H]2C[C@H]3CSC(N)=N[C@@]3(c3ccc(F)cc3F)CO2)n1 [Example 19, 2-[(4aR,6R,8aS)-2-Amino-8a-(2,4-difluorophenyl)-4,4a,5,6,8,8a-hexahydropyrano[3,4-d][1,3]thiazin-6-yl]-1,3-oxazole-4-carbonitrile]",555,73.2
"Cc1cnc([C@H]2C[C@H]3CSC(N)=N[C@@]3(c3ccc(F)cc3F)CO2)cn1 [Example 20, (4aR,6R,8aS)-8a-(2,4-Difluorophenyl)-6-(5-methylpyrazin-2-yl)-4,4a,5,6,8,8a-hexahydropyrano[3,4-d][1,3]thiazin-2-amine]",389,20.2
"CCOc1cc([C@H]2C[C@H]3CSC(N)=N[C@@]3(c3ccc(F)cc3F)CO2)nn1C [Example 21, (4aR,6R,8aS)-8a-(2,4-Difluorophenyl)-6-(5-ethoxy-1-methyl-1H-pyrazol-3-yl)-4,4a,5,6,8,8a-hexahydropyrano[3,4-d][1,3]thiazin-2-amine]",5400,123
"NC1=N[C@@]2(c3ccc(F)cc3F)CO[C@@H](c3nc4ccncc4o3)C[C@H]2CS1 [Example 23, (4aR,6R,8aS)-8a-(2,4-Difluorophenyl)-6-([1,3]oxazolo[5,4-c]pyridin-2-yl)-4,4a,5,6,8,8a-hexahydropyrano[3,4-d][1,3]thiazin-2-amine]",5020,40.8
"NC1=N[C@@]2(c3ccc(F)cc3F)CO[C@@H](c3cncnc3)C[C@H]2CS1 [Example 24, (4aR,6R,8aS)-8a-(2,4-Difluorophenyl)-6-(pyrimidin-5-yl)-4,4a,5,6,8,8a-hexahydropyrano[3,4-d][1,3]thiazin-2-amine]",1550,141
"COc1cc([C@H]2C[C@H]3CSC(N)=N[C@@]3(c3ccc(F)cc3F)CO2)ccn1 [Example 25, (4aR,6R,8aS)-8a-(2,4-Difluorophenyl)-6-(2-methoxypyridin-4-yl)-4,4a,5,6,8,8a-hexahydropyrano[3,4-d][1,3]thiazin-2-amine]",384,40.5
"COc1cncc([C@H]2C[C@H]3CSC(N)=N[C@@]3(c3ccc(F)cc3F)CO2)c1 [Example 26, (4aR,6R,8aS)-8a-(2,4-Difluorophenyl)-6-(5-methoxypyridin-3-yl)-4,4a,5,6,8,8a-hexahydropyrano[3,4-d][1,3]thiazin-2-amine]",1250,62.6
"Cc1cc([C@H]2C[C@H]3CSC(N)=N[C@@]3(c3ccc(F)cc3F)CO2)ccn1 [Example 27, (4aR,6R,8aS)-8a-(2,4-Difluorophenyl)-6-(2-methylpyridin-4-yl)-4,4a,5,6,8,8a-hexahydropyrano[3,4-d][1,3]thiazin-2-amine]",221,4.73
"NC1=N[C@@]2(c3ccc(F)cc3F)CO[C@@H](c3ccc4nccn4c3)C[C@H]2CS1 [Example 28, (4aR,6R,8aS)-8a-(2,4-Difluorophenyl)-6-(imidazo[1,2-a]pyridin-6-yl)-4,4a,5,6,8,8a-hexahydropyrano[3,4-d][1,3]thiazin-2-amine]",2150,15.5
"Cc1cnc([C@@H]2C[C@@H]3CSC(N)=N[C@]3(c3ccc(F)cc3F)CO2)cn1 [Example C89, (4aS,6S,8aR)-8a-(2,4-difluorophenyl)-6-(5-methylpyrazin-2-yl)-4,4a,5,6,8,8a-hexahydropyrano[3,4-d][1,3]thiazin-2-amine]",36200,1360
